Measured values as given in the NIST ThermoML archive (doi:10.1021/je8002699).
Values joined by “and” are separate entries in the source; they are usually repeats but may differ in a detail not shown here. Identical values can stand only once. ± gives the expanded uncertainty stated by the source.

Assays:
[1] = refractive index (Na D-line) (dimensionless); settings: 101.33 kPa, Liquid
[2] = for mass density / viscosity / speed of sound: Liquid
[3] = refractive index (Na D-line) (dimensionless); xn = mol fraction of the nth substance listed; settings: 101 kPa, Liquid, x2 = 0
[4] = xn = mol fraction of the nth substance listed; settings: x2 = 0; for mass density / speed of sound / viscosity: 101 kPa, Liquid

Compound	refractive index ([1]; 303.15 K)	refractive index ([1]; 313.15 K)	refractive index ([1]; 323.15 K)	surface tension liquid-gas ([2]; 303.15 K)	mass density ([2]; 303.15 K, 101 kPa)	speed of sound ([2]; 303.15 K, 101 kPa)	viscosity ([2]; 303.15 K, 101 kPa)	surface tension liquid-gas ([2]; 313.15 K)	mass density ([2]; 313.15 K, 101 kPa)	speed of sound ([2]; 313.15 K, 101 kPa)	viscosity ([2]; 313.15 K, 101 kPa)	surface tension liquid-gas ([2]; 323.15 K)	mass density ([2]; 323.15 K, 101 kPa)	speed of sound ([2]; 323.15 K, 101 kPa)	viscosity ([2]; 323.15 K, 101 kPa)	refractive index ([3]; 303.15 K)	refractive index ([3]; 313.15 K)	refractive index ([3]; 323.15 K)	surface tension liquid-gas ([4]; 303.15 K)	mass density ([4]; 303.15 K)	other results
CC(=O)CC(C)(C)O [4-hydroxy-4-methylpentan-2-one]	1.4239 ± 0.005	1.4198 ± 0.005	1.4151 ± 0.005	29.44 ± 0.85 mN/m	936 ± 7.8 kg/m3	1256 ± 6 m/s	2.89 ± 0.13 mPa·s	28.92 ± 0.84 mN/m	912 ± 8.3 kg/m3	1183 ± 5 m/s	2.791 ± 0.13 mPa·s	28.12 ± 0.82 mN/m and 27.12 ± 0.8 mN/m	901 ± 8.9 kg/m3	1121 ± 5 m/s	2.67 ± 0.12 mPa·s	–	–	–	–	–	mass density ([2]; 293.15 K, 101 kPa): 938 ± 7 kg/m3; viscosity ([2]; 293.15 K, 101 kPa): 2.89 ± 0.13 mPa·s
CCc1ccccc1 [ethylbenzene]	1.4985 ± 0.0026	1.4901 ± 0.0026	1.4821 ± 0.0026	30.01 ± 0.86 mN/m	867 ± 3.9 kg/m3	1335 ± 6 m/s	0.577 ± 0.047 mPa·s	29.04 ± 0.83 mN/m	842 ± 3.9 kg/m3	1289 ± 6 m/s	0.5914 ± 0.048 mPa·s	28.12 ± 0.81 mN/m	832.1 ± 4.1 kg/m3	1204 ± 5 m/s	0.4841 ± 0.041 mPa·s	–	–	–	–	–	–
CCc1ccccc1 [ethylbenzene] + CC(=O)CC(C)(C)O	–	–	–	–	–	–	–	–	–	–	–	–	–	–	–	1.4985 ± 0.0026	1.4901 ± 0.0026	1.4821 ± 0.0026	30.01 ± 0.86 mN/m	867 ± 3.9 kg/m3	speed of sound ([4]; 303.15 K): 1335 ± 6 m/s; viscosity ([4]; 303.15 K): 0.577 ± 0.047 mPa·s; surface tension liquid-gas ([4]; 313.15 K): 29.04 ± 0.83 mN/m; mass density ([4]; 313.15 K): 842 ± 3.9 kg/m3; speed of sound ([4]; 313.15 K): 1289 ± 6 m/s; viscosity ([4]; 313.15 K): 0.5914 ± 0.048 mPa·s; surface tension liquid-gas ([4]; 323.15 K): 28.12 ± 0.81 mN/m; mass density ([4]; 323.15 K): 832.1 ± 4.1 kg/m3; speed of sound ([4]; 323.15 K): 1204 ± 5 m/s; viscosity ([4]; 323.15 K): 0.4841 ± 0.041 mPa·s
O=[N+]([O-])c1ccccc1 [nitrobenzene]	1.5504 ± 0.005	1.5476 ± 0.005	1.5435 ± 0.005	40.9 ± 1.1 mN/m	1200 ± 10 kg/m3	1413 ± 6 m/s	1.617 ± 0.076 mPa·s	38.24 ± 1.1 mN/m	1196 ± 11 kg/m3	1318 ± 6 m/s	1.465 ± 0.069 mPa·s	36.47 ± 1 mN/m	1185 ± 12 kg/m3	1221 ± 5 m/s	1.343 ± 0.064 mPa·s	–	–	–	–	–	–
O=[N+]([O-])c1ccccc1 [nitrobenzene] + CC(=O)CC(C)(C)O	–	–	–	–	–	–	–	–	–	–	–	–	–	–	–	1.5504 ± 0.005	1.5476 ± 0.005	1.5435 ± 0.005	40.9 ± 1.1 mN/m	1200 ± 10 kg/m3	speed of sound ([4]; 303.15 K): 1413 ± 6 m/s; viscosity ([4]; 303.15 K): 1.617 ± 0.076 mPa·s; surface tension liquid-gas ([4]; 313.15 K): 38.24 ± 1.1 mN/m; mass density ([4]; 313.15 K): 1196 ± 11 kg/m3; speed of sound ([4]; 313.15 K): 1318 ± 6 m/s; viscosity ([4]; 313.15 K): 1.465 ± 0.069 mPa·s; surface tension liquid-gas ([4]; 323.15 K): 36.47 ± 1 mN/m; mass density ([4]; 323.15 K): 1185 ± 12 kg/m3; speed of sound ([4]; 323.15 K): 1221 ± 5 m/s; viscosity ([4]; 323.15 K): 1.343 ± 0.064 mPa·s
Cc1ccccc1 [toluene]	–	–	–	–	–	–	–	–	–	–	–	–	–	–	–	–	–	–	–	–	viscosity ([2]; 298.15 K, 101.33 kPa, Capillary tube (Ostwald / Ubbelohde) method): 0.555 ± 0.0042 mPa·s; mass density ([2]; 298.15 K, 101.33 kPa, Pycnometric method): 862.4 ± 1 kg/m3
